Experimental data as given in publication PMC12645437, “Orthogonal IMiD-Degron Pairs Induce Selective Protein Degradation in Cells” (ACS Chemical Biology, 2025).
Several values for one entry are separate records, joined by “and”; a condition that tells them apart may be missing. Equal values may be shown once.

How the values were obtained:
[1] = target: FDIP mutant ZF degron fused to EGFP (Homo sapiens, UniProt Q96SW2+Q9UKT9, N149D/Q147F/Q150I/S154P); experiment: Ratiometric EGFP:mCherry flow cytometry degradation assay, 18 h
[2] = target: FEVP mutant ZF degron fused to EGFP (Homo sapiens, UniProt Q96SW2+Q9UKT9, N149E/Q147F/Q150V/S154P); experiment: as above
Sequence of FEVP mutant ZF degron fused to EGFP (Q9UKT9 130-189 Q147F/N149E/Q150V/S154P): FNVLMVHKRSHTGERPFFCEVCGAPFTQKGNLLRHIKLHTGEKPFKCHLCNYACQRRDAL
Sequence of FEVP mutant ZF degron fused to EGFP (Q96SW2 whole entry, the tested form may be a part): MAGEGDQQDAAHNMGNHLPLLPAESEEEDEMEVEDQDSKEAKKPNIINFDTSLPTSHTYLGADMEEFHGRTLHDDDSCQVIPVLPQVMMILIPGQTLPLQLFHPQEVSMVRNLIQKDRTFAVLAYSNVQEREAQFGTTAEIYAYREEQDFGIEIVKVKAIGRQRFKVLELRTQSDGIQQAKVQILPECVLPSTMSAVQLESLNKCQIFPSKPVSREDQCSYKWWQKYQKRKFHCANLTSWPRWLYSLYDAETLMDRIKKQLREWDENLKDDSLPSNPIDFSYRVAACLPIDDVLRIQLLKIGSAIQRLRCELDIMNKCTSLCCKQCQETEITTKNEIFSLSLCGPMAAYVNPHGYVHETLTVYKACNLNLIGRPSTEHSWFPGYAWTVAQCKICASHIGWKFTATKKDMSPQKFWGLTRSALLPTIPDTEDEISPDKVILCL
Sequence of FEVP mutant ZF degron fused to EGFP (Q16531 whole entry partner, the tested form may be a part): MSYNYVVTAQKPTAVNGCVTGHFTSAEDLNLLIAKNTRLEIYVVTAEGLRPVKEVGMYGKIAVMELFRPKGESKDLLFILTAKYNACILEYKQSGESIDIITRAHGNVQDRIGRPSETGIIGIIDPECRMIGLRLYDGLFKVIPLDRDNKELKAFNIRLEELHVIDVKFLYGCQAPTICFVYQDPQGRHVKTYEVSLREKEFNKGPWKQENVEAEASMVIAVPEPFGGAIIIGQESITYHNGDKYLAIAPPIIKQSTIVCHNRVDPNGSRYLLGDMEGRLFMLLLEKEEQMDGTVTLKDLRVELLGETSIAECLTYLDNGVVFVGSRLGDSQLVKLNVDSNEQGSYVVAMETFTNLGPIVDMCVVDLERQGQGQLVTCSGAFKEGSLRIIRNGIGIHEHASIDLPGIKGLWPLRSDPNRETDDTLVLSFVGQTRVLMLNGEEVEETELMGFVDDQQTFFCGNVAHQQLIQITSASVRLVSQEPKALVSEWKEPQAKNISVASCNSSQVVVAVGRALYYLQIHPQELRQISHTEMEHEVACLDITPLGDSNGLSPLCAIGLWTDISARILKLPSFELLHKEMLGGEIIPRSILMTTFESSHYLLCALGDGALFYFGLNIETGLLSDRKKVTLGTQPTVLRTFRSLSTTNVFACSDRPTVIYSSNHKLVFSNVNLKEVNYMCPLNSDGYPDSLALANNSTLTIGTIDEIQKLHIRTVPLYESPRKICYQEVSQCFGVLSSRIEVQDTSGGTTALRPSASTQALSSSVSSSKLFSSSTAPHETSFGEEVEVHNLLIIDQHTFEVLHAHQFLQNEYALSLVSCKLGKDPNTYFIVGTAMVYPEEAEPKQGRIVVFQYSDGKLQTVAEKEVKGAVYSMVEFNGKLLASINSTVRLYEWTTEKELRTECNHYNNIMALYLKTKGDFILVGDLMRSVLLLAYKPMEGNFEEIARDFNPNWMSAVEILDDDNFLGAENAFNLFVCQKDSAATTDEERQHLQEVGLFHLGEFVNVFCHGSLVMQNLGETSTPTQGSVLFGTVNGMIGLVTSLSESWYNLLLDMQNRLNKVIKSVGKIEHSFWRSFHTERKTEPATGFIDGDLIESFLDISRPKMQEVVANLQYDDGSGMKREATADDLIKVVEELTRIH

[3] = target: T1, ZF-EGFP fusion protein with the HEIP, AEVK, WEIS, or WT ZF degron (Homo sapiens, UniProt Q9UKT9, N149E/Q147A/Q150V/S154K); experiment: Western blot for ZF-EGFP fusion protein; format: cell-based; conditions: transduced Jurkat, 18 h
T1 construct: The degron spans residues 130–189 of IKZF3; expressed in transfected cells; host or cells: Jurkat, lentivirally transduced, presorted mCherry+

[4] = target: T2, ZF-EGFP fusion protein with the HEIP, AEVK, WEIS, or WT ZF degron (Homo sapiens, UniProt Q9UKT9, N149E/Q147H/Q150I/S154P); experiment: Western blot for ZF-EGFP fusion protein; format: cell-based; conditions: transduced Jurkat, 18 h
T2 construct: The degron spans residues 130–189 of IKZF3; expressed in transfected cells; host or cells: Jurkat, lentivirally transduced, presorted mCherry+

[5] = target: AEVK mutant ZF degron fused to EGFP (Homo sapiens, UniProt Q96SW2+Q9UKT9, N149E/Q147A/Q150V/S154K); experiment: Ratiometric EGFP:mCherry flow cytometry degradation assay, 18 h
Sequence of AEVK mutant ZF degron fused to EGFP (Q9UKT9 130-189 Q147A/N149E/Q150V/S154K): as the sequence (Q9UKT9 130-189 Q147F/N149E/Q150V/S154P) above, with F18A, P25K counted along it
Sequence of AEVK mutant ZF degron fused to EGFP (Q96SW2 whole entry, the tested form may be a part): as the sequence (Q96SW2 whole entry, the tested form may be a part) above
Sequence of AEVK mutant ZF degron fused to EGFP (Q16531 whole entry partner, the tested form may be a part): as the sequence (Q16531 whole entry partner, the tested form may be a part) above

[6] = target: HEIP mutant ZF degron fused to EGFP (Homo sapiens, UniProt Q96SW2+Q9UKT9, N149E/Q147H/Q150I/S154P); experiment: as above
Sequence of HEIP mutant ZF degron fused to EGFP (Q9UKT9 130-189 Q147H/N149E/Q150I/S154P): as the sequence (Q9UKT9 130-189 Q147F/N149E/Q150V/S154P) above, with F18H, V21I counted along it
Sequence of HEIP mutant ZF degron fused to EGFP (Q96SW2 whole entry, the tested form may be a part): as the sequence (Q96SW2 whole entry, the tested form may be a part) above
Sequence of HEIP mutant ZF degron fused to EGFP (Q16531 whole entry partner, the tested form may be a part): as the sequence (Q16531 whole entry partner, the tested form may be a part) above

[7] = target: T3, TRIM28 with C-terminal WEIS degron tag and HiBit tag (Homo sapiens, UniProt Q96SW2+Q9UKT9, N149E/Q147W/Q150I); experiment: HiBiT luminescence degradation assay; format: cell-based; conditions: Jurkat, 24 h
T3 construct: pLVX-Sprout-IKZF3 130-189aa Q147W N149E Q150I (WEIS); TRIM28 (fusion partner / protein of interest, gene TRIM28, human entry Q13263 by my knowledge); expressed in transfected cells; host or cells: Jurkat, lentiviral transduction; endogenous TRIM28 knocked out by CRISPR

[8] = tested on: embryonic stem cells (ESCs); experiment: TMTpro quantitative proteomics, 16 h; conditions: 10 μM
Experimental: (§1) Quantitative proteomics screens were carried out in untransduced Jurkat cells, embryonic stem cells (ESCs), and the multiple myeloma cell line, MM.1S. We used Jurkat cells, as our work up to this point had employed this cell line, and we selected ESCs and MM.1S cells as they express known CRBN neosubstrates, including IKZF1, IKZF3, RAB28, RNF166, SALL4, ZFP91, and ZNF827.
(§2) Proteomics - cell lysis and protein digestion
(§3) The viability of Jurkat cells was tested after 16-h treatment with corresponding chemicals
(§4) viable cells in each condition. Next, ~10^7 cells per condition were collected by centrifugation (1000 rpm), washed twice with ice-cold PBS, and lysed in RIPA buffer [50 mM HEPES pH 7.4, 150 mM NaCl, 1% sodium deoxycholate, 1% NP-40, 0.1% SDS, 10 mM sodium pyrophosphate, 10 mM β-glycerophosphate, 2.5 mM MgCl2, 200 µM TCEP, phosphatase and protease inhibitor cocktail (in-house)], to produce whole cell extracts. Whole-cell extracts were sonicated, and protein concentrations were determined using the Bradford assay. Protein extracts (100 µg) were subjected to disulfide bond reduction with 5 mM TCEP (10 min) and alkylation with 25 mM chloroacetamide (20 min). Methanol–chloroform precipitation was performed prior to protease digestion. […]

[9] = target: T4, ZF-EGFP fusion protein with the HEIP, AEVK, WEIS, or WT ZF degron (Homo sapiens, UniProt Q9UKT9, N149E/Q147W/Q150I); experiment: Western blot for ZF-EGFP fusion protein; format: cell-based; conditions: transduced Jurkat, 18 h
T4 construct: The degron spans residues 130–189 of IKZF3; expressed in transfected cells; host or cells: Jurkat, lentivirally transduced, presorted mCherry+

MM.1S cells = experiment: TMTpro quantitative proteomics, 16 h; conditions: 10 μM
Experimental: as §1, §2, §3, §4

[10] = target: T5, WEIS-EGFP in 3T3 mouse cells (UniProt Q8C7D2+Q9UKT9, N149E/Q147W/Q150I); experiment: EGFP/mCherry flow cytometry degradation assay in 3T3 cells; format: cell-based; conditions: 18 h; compared to human cells
T5 construct: IKZF3 130aa-142aa 170-189aa fused to EGFP; EGFP (fusion partner, via a linker); expressed in transfected cells; host or cells: 3T3 mouse cells, lentivirally transduced with WEIS-EGFP-IRES-mCherry (Artichoke-derived, Addgene #73320)
Experimental: It is also noteworthy that this system is not yet optimized for use in mouse cells, as mouse cereblon contains a key V388I mutation that prevents IMiD-induced recruitment of ZF neosubstrates. […] We anticipate that mutations could be introduced to this degron to make it mouse-compatible for future in vivo studies.
Figure S24. Dose response curve for 3T3 mouse cells lentivirally transduced with WEIS-EGFP-
IRES-mCherry incubated with a concentration curve of compound 23 (1pM – 10 μM) for 18 h and
analyzed by flow cytometry.
(1 picture or pasted object on this page, not shown here)

endogenous GSPT1 = target: T6, endogenous GSPT1 (Homo sapiens, UniProt P15170); experiment: Western blot for GSPT1 in WEIS-EGFP Jurkat cells; format: cell-based; conditions: Jurkat transduced with EGFP-WEIS, 18 h
T6 construct: endogenous in cells; host or cells: Jurkat transduced with WEIS-EGFP

[11] = tested on: Jurkat cells (TRIM28-transduced and untransduced); experiment: CellTiter-Glo cell viability assay; format: cell-based, human; conditions: 100 pM – 10 μM, 24 h
Experimental: Figure S22. CellTiter-Glo assay to assess cell viability of Jurkat cells lentivirally transduced with TRIM28 with either N-terminal or C-terminal WEIS degron tag (or untagged control) and HiBit peptide tag, then incubated (alongside untransduced Jurkat cells) with a concentration curve of […]
(1 picture or pasted object on this page, not shown here) […]
mixed with the Cas9 RNPs and then electroporated using a 4D-Nucleofector (Lonza) on pulse code CL-120. Estimation of knockout efficiency was performed by PCR amplification of the sgRNA target site using primers described in ‘PCR primers for amplifying sgRNA target site’ below. PCR products were Sanger sequenced and editing efficiency was assessed using the online […]
HiBit and CellTiter-Glo® (CTG) Assays […]
spanning 169 pM–10 μM (final assay concentration). […]
HiBit signal was measured by adding 25 µL of the lytic detection reagent from the Nano-Glo® HiBiT Extracellular Detection System (Promega), prepared as per manufacturer protocol. […] Both assays were read using PHERAstar microplate luminescence reader (BMG Labtech). The data have been expressed as % of DMSO control and represent three independent biological replicates. […]
signal was measured by adding 40 µL of the Nano-Glo lytic detection reagent (Promega),

[12] = target: T7, TRIM28 with N-terminal WEIS degron tag and HiBit tag (Homo sapiens, UniProt Q96SW2+Q9UKT9, N149E/Q147W/Q150I); experiment: HiBiT luminescence degradation assay; format: cell-based; conditions: Jurkat, 24 h
T7 construct: pLVX-Sprout-IKZF3 130-189aa Q147W N149E Q150I (WEIS); TRIM28 (fusion partner / protein of interest, gene TRIM28, human entry Q13263 by my knowledge); expressed in transfected cells; host or cells: Jurkat, lentiviral transduction; endogenous TRIM28 knocked out by CRISPR

Question: With `CC(C)(C)c1ccc2c(c1)C(=O)N(C1CCC(=O)NC1=O)C2=O` (stereo not drawn) [Compound 19] as the compound, how does the “Selectivity (WT/mutant)” value ([1]; DC50(WT)/DC50(FDIP)) read?
Answer: 12.0

Question: And the DC50 ([1]; FDIP, Jurkat, 18 h)?
Answer: 63.1 nM

Question: What about the pDC50 ([1]; FDIP, Jurkat, 18 h) of the same compound?
Answer: 7.20

Question: What about the “Selectivity (WT/mutant)” value ([2]; DC50(WT)/DC50(FEVP)) of the same compound?
Answer: 15.1

Question: What about the DC50 ([2]; FEVP, Jurkat, 18 h) of the same compound?
Answer: 50.1 nM

Question: What about the pDC50 ([2]; FEVP, Jurkat, 18 h) of the same compound?
Answer: 7.30

Question: What about the “degradation of EGFP tagged with AEVK degron (Western blot)” value [3] of the same compound?
Answer: complete degradation

Question: And the “degradation of EGFP tagged with HEIP degron (Western blot)” value [4]?
Answer: complete degradation

Question: What about the DC50 ([5]; AEVK, Jurkat, 18 h) of the same compound?
Answer: 27.5 nM

Question: What about the pDC50 ([5]; AEVK, Jurkat, 18 h) of the same compound?
Answer: 7.56

Question: What about the “Selectivity (WT/mutant)” value ([5]; DC50(WT)/DC50(AEVK)) of the same compound?
Answer: 28

Question: What about the “Selectivity (WT/mutant)” value ([6]; DC50(WT)/DC50(HEIP)) of the same compound?
Answer: 25 and 25.1

Question: And the DC50 ([6]; HEIP, Jurkat, 18 h)?
Answer: 30.2 nM

Question: And the pDC50 ([6]; HEIP, Jurkat, 18 h)?
Answer: 7.52

Question: How did the DC50 [7] turn out when `CN1CCN(c2ccc3c(c2)C(=O)N(C2CCC(=O)NC2=O)C3=O)CC1` (stereo not drawn) [Compound 23] was run?
Answer: 125 nM

Question: And the D max ([7]; with 10 μM)?
Answer: 83%

Question: And the “proteins degraded (quantitative proteomics)” value [8]?
Answer: did not induce any protein degradation

Question: And the “degradation of EGFP tagged with WEIS degron (Western blot)” value [9]?
Answer: complete degradation

Question: What about the “proteins degraded (quantitative proteomics)” value (MM.1S cells) of the same compound?
Answer: did not significantly (Welch’s t test) induce degradation of any protein

Question: And the “WEIS-EGFP degradation in 3T3 mouse cells” value [10]?
Answer: modest levels of WEIS-EGFP degradation

Question: And the “degradation of endogenous GSPT1 (Western blot)” value (endogenous GSPT1)?
Answer: showed no degradation

Question: What about the cell viability [11] of the same compound?
Answer: did not affect the cell viability

Question: What about the D max [12] of the same compound?
Answer: 66%

Question: And the DC50 [12]?
Answer: 1270 nM
